Test [1] addresses human CB1 receptor (hCB1) (Homo sapiens, UniProt P21554). Description: cell-based. Type of test: cell-based. The settings on record: for +/− HCB1: agonist or inverse agonist at hCB1; for EC50: groups >100 nM-10 μM and >10 μM, cAMP, CHO-K1 hCB1, read-out: EC50 HCB1. In a few lines:
(§1)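 First, cells in IBMX-containing HEPES-buffered HBSS are raised to elevated cAMP with 2-8 μM NKH-477 for 30 min. Data are normalised to the forskolin and forskolin + 1 μM CP55,940 controls.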

The target in another test is T1, rat CB2 receptor (rCB2) (Rattus norvegicus, UniProt Q9QZN9).
T1 sequence (Q9QZN9 1-360): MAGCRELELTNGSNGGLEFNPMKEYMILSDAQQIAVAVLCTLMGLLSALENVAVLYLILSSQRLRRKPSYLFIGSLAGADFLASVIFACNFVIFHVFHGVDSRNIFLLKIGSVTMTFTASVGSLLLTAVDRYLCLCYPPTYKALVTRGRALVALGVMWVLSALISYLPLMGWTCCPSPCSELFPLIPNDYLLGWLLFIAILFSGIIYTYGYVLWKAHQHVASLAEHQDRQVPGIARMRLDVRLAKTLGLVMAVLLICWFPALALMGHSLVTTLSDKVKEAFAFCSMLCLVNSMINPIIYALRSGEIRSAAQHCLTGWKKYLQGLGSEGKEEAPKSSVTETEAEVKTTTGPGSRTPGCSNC
Description: cell-based. Format: cell-based. The settings on record: for +/− RCB2: agonist or inverse agonist at rCB2. In a few lines: as §1

pEC50: −log10 of the molar value. Where two headings read alike, the source gives them in different places. Some results are limits rather than exact numbers.

Chain of human CB1 receptor (hCB1) (P21554 whole entry): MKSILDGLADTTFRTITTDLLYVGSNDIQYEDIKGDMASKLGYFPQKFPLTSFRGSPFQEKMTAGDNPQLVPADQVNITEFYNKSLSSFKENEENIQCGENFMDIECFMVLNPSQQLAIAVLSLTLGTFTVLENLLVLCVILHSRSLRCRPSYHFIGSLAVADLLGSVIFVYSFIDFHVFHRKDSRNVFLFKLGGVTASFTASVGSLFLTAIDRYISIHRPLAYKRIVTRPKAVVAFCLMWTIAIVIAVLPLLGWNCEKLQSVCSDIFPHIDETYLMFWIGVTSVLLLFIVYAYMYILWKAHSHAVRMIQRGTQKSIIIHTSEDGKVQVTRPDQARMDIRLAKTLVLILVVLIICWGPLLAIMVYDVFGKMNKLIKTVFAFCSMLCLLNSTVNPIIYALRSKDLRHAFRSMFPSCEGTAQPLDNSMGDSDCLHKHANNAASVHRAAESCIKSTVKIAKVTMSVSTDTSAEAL

As to `CC(C)C[C@H](NC(=O)c1nc(-c2cc(Cl)ccc2F)n2c1CN(C)CCC2)C(N)=O` [Compound 569, (S)-N-(1-amino-4-methyl-1-oxopentan-2-yl)-3-(5-chloro-2-fluorophenyl)-8-methyl-6,7,8,9-tetrahydro-5H-imidazo[1,5-a][1,4]diazepine-1-carboxamide], in test [1], the “+/− HCB1” value is “+”. Further, the “+/− RCB2” value at rat CB2 receptor (rCB2) is “+”.

Turning to `CN1CCCn2c(-c3cc(Cl)ccc3F)nc(C(=O)N[C@@H](CC(C)(C)C)C(N)=O)c2C1` [Compound 585, (S)-N-(1-amino-4,4-dimethyl-1-oxopentan-2-yl)-3-(5-chloro-2-fluorophenyl)-8-methyl-6,7,8,9-tetrahydro-5H-imidazo[1,5-a][1,4]diazepine-1-carboxamide], in test [1], the “+/− HCB1” value is given as “+”. Also, on rat CB2 receptor (rCB2), the “+/− RCB2” value was “+”.

The molecule `COC(=O)[C@@H](NC(=O)c1nc(-c2ccc(C)cc2F)n2c1CNCCC2)C(C)(C)C` [Compound 466] gave a pEC50 in test [1] of under 5.00. The “+/− RCB2” value at rat CB2 receptor (rCB2) is reported as “−”.

The molecule `C/C=C/c1nc(C(=O)N[C@H](C(=O)NC)C(C)(C)C)c2n1CCN(C)C2` [Compound 243, (S,E)-N-(3,3-dimethyl-1-(methylamino)-1-oxobutan-2-yl)-7-methyl-3-(prop-1-enyl)-5,6,7,8-tetrahydroimidazo[1,5-a]pyrazine-1-carboxamide] showed a pEC50 in test [1] of under 5.00. Also, the “+/− RCB2” value at rat CB2 receptor (rCB2) is on record as “+”.

`CC(C)(CO)CNC(=O)c1nc(-c2ccccc2)n2c1CNCC2` [Compound 29, N-(3-hydroxy-2,2-dimethylpropyl)-3-phenyl-5,6,7,8-tetrahydroimidazo[1,5-a]pyrazine-1-carboxamide]: in test [1], the EC50 was over 10000 nM. At rat CB2 receptor (rCB2), the “+/− RCB2” value is recorded as “−”.

With `CC(C)(C)CNC(=O)c1nc(-c2ccccc2)n2c1CN(S(=O)(=O)c1ccccc1)CC2` [Compound 104, N-neopentyl-3-phenyl-7-(phenylsulfonyl)-5,6,7,8-tetrahydroimidazo[1,5-a]pyrazine-1-carboxamide], the pEC50 in test [1] is under 5.00. For the same molecule, the “+/− RCB2” value on rat CB2 receptor (rCB2) is “−”.

`CNC(=O)[C@@H](NC(=O)c1nc(-c2ccccc2)n2c1CN(Cc1ccnn1C)CC2)C(C)(C)C` [Compound 65, (S)-N-(3,3-dimethyl-1-(methylamino)-1-oxobutan-2-yl)-7-((1-methyl-1H-pyrazol-5-yl)methyl)-3-phenyl-5,6,7,8-tetrahydroimidazo[1,5-a]pyrazine-1-carboxamide]: the negative logarithm of the EC50 (pEC50) (in test [1]; on rat CB2 receptor (rCB2)) was under 5.00 each time.

In turn, `O=C(NN1CCCCC1)c1nc(-c2ccccc2)n2c1CNCC2` [Compound 44, 3-phenyl-N-(piperidin-1-yl)-5,6,7,8-tetrahydroimidazo[1,5-a]pyrazine-1-carboxamide] had a negative-log EC50 (pEC50) in test [1] of under 5.00. In addition, at rat CB2 receptor (rCB2), the “+/− RCB2” value is reported as “−”.

In test [1], `CNC(=O)[C@@H](NC(=O)c1nc(-c2ccccc2)n2c1CN(S(=O)(=O)CC(C)C)CC2)C(C)(C)C` [Compound 95, (S)-N-(3,3-dimethyl-1-(methylamino)-1-oxobutan-2-yl)-7-(isobutylsulfonyl)-3-phenyl-5,6,7,8-tetrahydroimidazo[1,5-a]pyrazine-1-carboxamide] showed a pEC50 of under 5.00. The “+/− RCB2” value on rat CB2 receptor (rCB2) is reported as “−”.

For the molecule `CNC(=O)[C@H](CC(C)C)NC(=O)c1nc(-c2ccc(Cl)cc2F)n2c1CN(C)CCC2` [Compound 529, (S)-3-(4-chloro-2-fluorophenyl)-8-methyl-N-(4-methyl-1-(methylamino)-1-oxopentan-2-yl)-6,7,8,9-tetrahydro-5H-imidazo[1,5-a][1,4]diazepine-1-carboxamide], the pEC50 in test [1] was under 5.00. For the same molecule, the “+/− RCB2” value on rat CB2 receptor (rCB2) was “+”.

On to `CNC(=O)[C@@H](NC(=O)c1nc(-c2ccccc2F)n2c1CN(C)CC2)C(C)(C)C` [Compound 258, (S)-N-(3,3-dimethyl-1-(methylamino)-1-oxobutan-2-yl)-3-(2-fluorophenyl)-7-methyl-5,6,7,8-tetrahydroimidazo[1,5-a]pyrazine-1-carboxamide], for which the pEC50 (in test [1]; at rat CB2 receptor (rCB2)) was under 5.00 in each case.

Turning to `CC(C)CCNC(=O)c1nc(-c2ccc(Cl)cc2)n2c1CN(CCO)CC2` [Compound 159, 3-(4-chlorophenyl)-7-(2-hydroxyethyl)-N-isopentyl-5,6,7,8-tetrahydroimidazo[1,5-a]pyrazine-1-carboxamide], the half-maximal effective concentration (EC50) in test [1] is over 10000 nM. Besides, on rat CB2 receptor (rCB2), the “+/− RCB2” value is recorded as “−”.

On to `CNC(=O)[C@@H](NC(=O)c1nc(-c2ccccc2)n2c1C[N+](C)(C)CCC2)C(C)(C)C` [Compound 481, (S)-1-(3,3-dimethyl-1-(methylamino)-1-oxobutan-2-ylcarbamoyl)-8,8-dimethyl-3-phenyl-6,7,8,9-tetrahydro-5H-imidazo[1,5-a][1,4]diazepin-8-ium], for which the negative-log EC50 (pEC50) (in test [1]; on rat CB2 receptor (rCB2)) was under 5.00 each time.

With `CN1CCn2c(-c3ccc(Cl)cc3F)nc(C(=O)Nc3ccc(S(N)(=O)=O)cc3)c2C1` [Compound 208, 3-(4-chloro-2-fluorophenyl)-7-methyl-N-(4-sulfamoylphenyl)-5,6,7,8-tetrahydroimidazo[1,5-a]pyrazine-1-carboxamide], the pEC50 in test [1] was under 5.00. Also, the “+/− RCB2” value at rat CB2 receptor (rCB2) was “−”.

`CNC(=O)[C@@H](NC(=O)c1nc(/C=C/CC2CCCC2)n2c1CN(C)CCC2)C(C)(C)C` [Compound 445, (S,E)-3-(3-cyclopentylprop-1-enyl)-N-(3,3-dimethyl-1-(methylamino)-1-oxobutan-2-yl)-8-methyl-6,7,8,9-tetrahydro-5H-imidazo[1,5-a][1,4]diazepine-1-carboxamide] showed a negative logarithm of the EC50 (pEC50) in test [1] of under 5.00. Further, the “+/− RCB2” value at rat CB2 receptor (rCB2) is “−”.

In test [1], `CC(C)CN1CCn2c(-c3ccc(Cl)cc3)nc(C(=O)N[C@H](CO)C(C)(C)C)c2C1` [Compound 160, (S)-3-(4-chlorophenyl)-N-(1-hydroxy-3,3-dimethylbutan-2-yl)-7-isobutyl-5,6,7,8-tetrahydroimidazo[1,5-a]pyrazine-1-carboxamide] showed a negative logarithm of the EC50 (pEC50) of under 5.00. On rat CB2 receptor (rCB2), the “+/− RCB2” value is “−”.

Turning to `Cc1ccc(-c2nc(C(=O)N[C@H](C(=O)O)C(C)(C)C)c3n2CCCN(C(=O)OC(C)(C)C)C3)c(F)c1` [Compound 516, (S)-2-(8-(tert-butoxycarbonyl)-3-(2-fluoro-4-methylphenyl)-6,7,8,9-tetrahydro-5H-imidazo[1,5-a][1,4]diazepine-1-carboxamido)-3,3-dimethylbutanoic acid], the pEC50 in test [1] was under 5.00. Further, the “+/− RCB2” value on rat CB2 receptor (rCB2) is “−”.

Take `CCCNC(=O)[C@@H](NC(=O)c1nc(-c2ccccc2)n2c1CN(C)CCC2)C(C)(C)C` [Compound 473, (S)-N-(3,3-dimethyl-1-oxo-1-(propylamino)butan-2-yl)-8-methyl-3-phenyl-6,7,8,9-tetrahydro-5H-imidazo[1,5-a][1,4]diazepine-1-carboxamide]: in test [1], the negative logarithm of the EC50 (pEC50) was under 5.00. Further, on rat CB2 receptor (rCB2), the “+/− RCB2” value is listed as “+”.

In test [1], `COC(=O)N1CCn2c(-c3ccccc3)nc(C(=O)NC3C4(C)CCC(C4)C3(C)C)c2C1` (centres unmarked) [Compound 178, methyl 3-phenyl-1-(1,3,3-trimethylbicyclo[2.2.1]heptan-2-ylcarbamoyl)-5,6-dihydroimidazo[1,5-a]pyrazine-7(8H)-carboxylate] gave a pEC50 of under 5.00. The “+/− RCB2” value at rat CB2 receptor (rCB2) is listed as “−”.

With `CN1CCn2c(-c3ccc(Cl)cc3F)nc(C(=O)NCc3ccc4[nH]c(=O)[nH]c4c3)c2C1` [Compound 228, 3-(4-chloro-2-fluorophenyl)-7-methyl-N-((2-oxo-2,3-dihydro-1H-benzo[d]imidazol-5-yl)methyl)-5,6,7,8-tetrahydroimidazo[1,5-a]pyrazine-1-carboxamide], in test [1], the EC50 was over 10000 nM. Also, the “+/− RCB2” value at rat CB2 receptor (rCB2) is “−”.

The molecule `CNC(=O)[C@H](CC(C)C)NC(=O)c1nc(-c2ccc(F)c(F)c2)n2c1CN(C)CC2` [Compound 278, (S)-3-(3,4-difluorophenyl)-7-methyl-N-(4-methyl-1-(methylamino)-1-oxopentan-2-yl)-5,6,7,8-tetrahydroimidazo[1,5-a]pyrazine-1-carboxamide] had a negative logarithm of the EC50 (pEC50) in test [1] of under 5.00. Besides, on rat CB2 receptor (rCB2), the “+/− RCB2” value was “+”.

The molecule `CNC(=O)[C@H](CC(C)C)NC(=O)c1nc(-c2ccc(F)cc2)n2c1CN(C)CCC2` [Compound 530, (S)-3-(4-fluorophenyl)-8-methyl-N-(4-methyl-1-(methylamino)-1-oxopentan-2-yl)-6,7,8,9-tetrahydro-5H-imidazo[1,5-a][1,4]diazepine-1-carboxamide] showed a pEC50 in test [1] of under 5.00. In addition, the “+/− RCB2” value at rat CB2 receptor (rCB2) is listed as “+”.

As to `CNC(=O)[C@@H](NC(=O)c1nc(/C=C/COC)n2c1CN(C)CCC2)C(C)(C)C` [Compound 398, (S,E)-N-(3,3-dimethyl-1-(methylamino)-1-oxobutan-2-yl)-3-(3-methoxyprop-1-enyl)-8-methyl-6,7,8,9-tetrahydro-5H-imidazo[1,5-a][1,4]diazepine-1-carboxamide], the pEC50 in test [1] is under 5.00. Besides, the “+/− RCB2” value on rat CB2 receptor (rCB2) was “+”.

As for `CNC(=O)[C@@H]1CCCN1C(=O)c1nc(-c2ccccc2)n2c1CNCCC2` [Compound 602], in test [1], the “+/− HCB1” value is on record as “−”. Besides, the pEC50 on rat CB2 receptor (rCB2) was under 5.00.

`CNC(=O)[C@@H](NC(=O)c1nc(-c2ccc(F)c(C#N)c2)n2c1CN(C)CCC2)C(C)(C)C` [Compound 425, (S)-3-(3-cyano-4-fluorophenyl)-N-(3,3-dimethyl-1-(methylamino)-1-oxobutan-2-yl)-8-methyl-6,7,8,9-tetrahydro-5H-imidazo[1,5-a][1,4]diazepine-1-carboxamide] gave a pEC50 in test [1] of under 5.00. The “+/− RCB2” value on rat CB2 receptor (rCB2) is reported as “+”.

For the origin of these results see US7517874B2 (priority 2007, dated 2009).
